In ChEMBL document CHEMBL1201862, “PubChem BioAssay data set” (2004):
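All cell lines were grown in 96-well plates and treated with compound for 48 hours. Here, GI50 denotes the concentration required for 50% inhibition of growth.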 Active and inactive are the calls of the source. No stated cut-off is given here; in the data, active = GI50 up to about 1.1 µM and inactive = higher.

Assays:
Assay in all cases: growth of human tumour cells (NCI), 48 h
[1] = system: 786-0
[2] = system: EKVX
[3] = system: HCC 2998
[4] = system: HL-60
[5] = system: HOP-62
[6] = system: HT-29
[7] = system: IGROV-1
[8] = system: KM12
[9] = system: LOX IMVI
[10] = system: MDA-N
[11] = system: NCI-H23
[12] = system: OVCAR-3
[13] = system: OVCAR-5
[14] = system: RPMI-8226
[15] = system: SK-OV-3
[16] = system: T47D
[17] = system: TK-10
[18] = system: UACC-62
[19] = system: CAKI-1
[20] = system: OVCAR-8

Row | Compound | GI50 [1] | GI50 [2] | GI50 [3] | GI50 [4] | GI50 [5] | GI50 [6] | GI50 [7] | GI50 [8] | GI50 [9] | GI50 [10] | GI50 [11] | GI50 [12] | GI50 [13] | GI50 [14] | GI50 [15] | GI50 [16] | GI50 [17] | GI50 [18] | GI50 [19] | GI50 [20]
1 | Clc1ccc(/C=C/c2nc(-c3ccccc3)cn3c2nc2ccccc23)cc1Cl | 37.5 µM (inactive) | 40.3 µM (inactive) | 43.5 µM (inactive) | 19.6 µM (inactive) | 59.2 µM (inactive) | 37.3 µM (inactive) | 36.1 µM (inactive) | 31.4 µM (inactive) | 59.8 µM (inactive) | 60 µM (inactive) | 31.2 µM (inactive) | 31.9 µM (inactive) | > 100 µM (inactive) | 41.9 µM (inactive) | > 100 µM (inactive) | 41.7 µM (inactive) | 56.6 µM (inactive) | > 100 µM (inactive) |  | 
2 | COCCCN1C(=O)C2c3[nH]c4ccccc4c3C3CCC(C(C)(C)C)CC3C2C1=O (centres undefined) | 22.7 µM (inactive) | 34.4 µM (inactive) | 20.3 µM (inactive) | 23.4 µM (inactive) | 22.4 µM (inactive) | 15.3 µM (inactive) | > 100 µM (inactive) | 20.7 µM (inactive) |  | 35.6 µM (inactive) | 27 µM (inactive) | 17.4 µM (inactive) |  | 22.6 µM (inactive) | > 100 µM (inactive) | 48.4 µM (inactive) | 59.3 µM (inactive) | > 10 µM (inactive) | 29.5 µM (inactive) | 35.5 µM (inactive)
3 | COc1ccc(C(=O)/C=C/c2ccc(OCCSCCCCCCCCCCSCCOc3ccc(/C=C/C(=O)c4ccc(OC)cc4)cc3)cc2)cc1 | > 100 µM (inactive) | > 100 µM (inactive) | > 100 µM (inactive) | > 100 µM (inactive) | > 100 µM (inactive) | > 100 µM (inactive) | > 100 µM (inactive) | > 100 µM (inactive) |  | < 0.01 µM (active) |  |  |  | > 100 µM (inactive) | > 100 µM (inactive) | > 100 µM (inactive) | > 100 µM (inactive) | > 100 µM (inactive) | > 100 µM (inactive) | > 100 µM (inactive)
4 | S=C(NCc1ccccc1)N/N=C/c1ccccn1 | 1.59 µM (inactive) | 1.82 µM (inactive) | 6.31 µM (inactive) | 0.0302 µM (active) | 3.7 µM (inactive) | 0.743 µM (active) | 1.58 µM (inactive) | 4.91 µM (inactive) | 1.53 µM (inactive) | 8.53 µM (inactive) | 3.56 µM (inactive) | 0.222 µM (active) | > 21.8 µM (inactive) | 0.118 µM (active) | 3.94 µM (inactive) | 0.161 µM (active) | 12.9 µM (inactive) | 3.27 µM (inactive) | 0.335 µM (active) | 1.15 µM (inactive)
5 | CCCCCC(C)C[C@H]1CO[C@H](c2ccc[nH]2)N[C@H]1C(=O)OC (some centres undefined) | > 100 µM (inactive) | > 100 µM (inactive) | > 100 µM (inactive) | > 100 µM (inactive) | > 100 µM (inactive) | > 100 µM (inactive) | > 100 µM (inactive) | > 100 µM (inactive) | > 100 µM (inactive) | > 100 µM (inactive) | > 100 µM (inactive) | > 100 µM (inactive) | > 100 µM (inactive) | > 100 µM (inactive) | > 100 µM (inactive) | > 100 µM (inactive) | > 100 µM (inactive) | > 100 µM (inactive) | > 100 µM (inactive) | > 100 µM (inactive)
6 | COc1cc(/C=C/C=C2\CCC/C(=C\C=C\c3ccc(O)c(OC)c3)C2=O)ccc1O | 10 µM (inactive) | 7.36 µM (inactive) | 13.2 µM (inactive) | 7.13 µM (inactive) | 17.3 µM (inactive) | 6.04 µM (inactive) | 6.7 µM (inactive) | 24.7 µM (inactive) | 7.91 µM (inactive) | 3.91 µM (inactive) | 11.7 µM (inactive) | 9.12 µM (inactive) | 22 µM (inactive) | 5.4 µM (inactive) | 5.81 µM (inactive) | 8.32 µM (inactive) | 8.34 µM (inactive) | 7.55 µM (inactive) | 7.23 µM (inactive) | 12.6 µM (inactive)
7 | Nc1ccc2nc(-c3ccccn3)c(-c3ccccn3)nc2c1 | > 100 µM (inactive) | > 100 µM (inactive) | > 100 µM (inactive) | > 100 µM (inactive) |  |  | > 100 µM (inactive) | > 100 µM (inactive) | > 100 µM (inactive) | > 100 µM (inactive) |  | > 100 µM (inactive) | > 100 µM (inactive) | > 100 µM (inactive) |  | > 100 µM (inactive) | > 100 µM (inactive) | > 100 µM (inactive) | > 100 µM (inactive) | > 100 µM (inactive)
8 | Cc1ccc2c(c1C)C(=O)/C(=C/c1cccc(C)c1C(=O)O)C2 | > 100 µM (inactive) | > 100 µM (inactive) | 51.5 µM (inactive) | 48.6 µM (inactive) | > 55.7 µM (inactive) | 85.5 µM (inactive) | > 86.7 µM (inactive) | 47.6 µM (inactive) | 44.1 µM (inactive) | > 80.5 µM (inactive) | > 100 µM (inactive) | 71.6 µM (inactive) | > 100 µM (inactive) | 71.3 µM (inactive) | 59.8 µM (inactive) | > 100 µM (inactive) | > 100 µM (inactive) | 56 µM (inactive) |  | 86.5 µM (inactive)
9 | COC(=O)C1=C2SCc3cccc(c3)CSC3=C(C(=O)OC)SC(=C(S2)S1)S3 | > 100 µM (inactive) |  | > 100 µM (inactive) | 25.9 µM (inactive) | > 100 µM (inactive) |  |  | > 100 µM (inactive) |  | 35.2 µM (inactive) |  | > 100 µM (inactive) |  | > 100 µM (inactive) | > 100 µM (inactive) | > 100 µM (inactive) | > 100 µM (inactive) | > 100 µM (inactive) | > 100 µM (inactive) | 
10 | NS(=O)(=O)c1ccc(/N=N/c2ccc(O)c(C(=O)O)c2)cc1 [SALAZOSULFAMIDE] | > 100 µM (inactive) | > 100 µM (inactive) | > 100 µM (inactive) | 29.1 µM (inactive) | > 100 µM (inactive) | > 100 µM (inactive) | > 100 µM (inactive) | > 100 µM (inactive) |  | > 100 µM (inactive) | > 100 µM (inactive) | > 100 µM (inactive) | > 100 µM (inactive) | > 100 µM (inactive) | > 100 µM (inactive) | > 100 µM (inactive) | > 100 µM (inactive) | > 100 µM (inactive) | > 100 µM (inactive) | > 100 µM (inactive)
11 | Cc1cc2[nH]c3c(C#N)c(-c4ccccc4)c(/C=N/c4ccc(F)cc4)c(=O)n3c2cc1C | > 100 µM (inactive) | > 100 µM (inactive) | > 100 µM (inactive) |  | > 100 µM (inactive) |  | > 100 µM (inactive) | 68.5 µM (inactive) | > 100 µM (inactive) | 59.7 µM (inactive) | > 100 µM (inactive) | 39.4 µM (inactive) | > 100 µM (inactive) | > 100 µM (inactive) | > 100 µM (inactive) | 40.6 µM (inactive) | > 100 µM (inactive) |  | > 100 µM (inactive) | > 100 µM (inactive)
12 | CN(C)CCc1c2c(nc3ccccc13)C(=O)c1cccnc1C2=O | 0.121 µM (active) | 1.55 µM (inactive) | 1.35 µM (inactive) | 0.0486 µM (active) |  | 1.55 µM (inactive) | 0.542 µM (active) | 0.173 µM (active) | < 0.0476 µM (active) | 0.352 µM (active) | 0.322 µM (active) | 0.0513 µM (active) | 1.18 µM (inactive) | 0.488 µM (active) | 0.479 µM (active) | 1.83 µM (inactive) | 1.3 µM (inactive) | 0.175 µM (active) | 0.582 µM (active) | 0.184 µM (active)
13 | CC(C)N1[C@@H]2CCCC[C@H]2N(C(C)C)[PH]1=O | > 100 µM (inactive) | > 100 µM (inactive) | > 100 µM (inactive) |  | > 100 µM (inactive) | > 100 µM (inactive) |  | > 100 µM (inactive) |  | > 100 µM (inactive) | > 100 µM (inactive) | > 100 µM (inactive) | > 100 µM (inactive) | > 100 µM (inactive) | > 100 µM (inactive) | > 100 µM (inactive) | > 100 µM (inactive) | > 100 µM (inactive) | > 100 µM (inactive) | > 100 µM (inactive)
14 | Cc1nnc(-n2c(O)cc(=O)n(-c3ccccc3)c2=S)nc1/C=C/c1ccc(N(C)C)cc1 | 12.3 µM (inactive) | 9.23 µM (inactive) | 6.49 µM (inactive) | 2.7 µM (inactive) | 5.86 µM (inactive) | 5 µM (inactive) | 5.98 µM (inactive) | 7.05 µM (inactive) | 4.32 µM (inactive) | 9.25 µM (inactive) | 8.36 µM (inactive) |  | 27.4 µM (inactive) | 11.2 µM (inactive) | 11.7 µM (inactive) | 6.62 µM (inactive) | > 39.4 µM (inactive) | 6.53 µM (inactive) | 5.7 µM (inactive) | 9.59 µM (inactive)
15 | O=C(Cc1cc(=O)oc2cc(O)ccc12)N/N=C/c1ccc(N(CCCl)CCCl)cc1 | 18.8 µM (inactive) | 17.5 µM (inactive) | > 100 µM (inactive) | 14.5 µM (inactive) | 23.7 µM (inactive) | 22.2 µM (inactive) | 18.8 µM (inactive) | 32.4 µM (inactive) | 16.6 µM (inactive) | 23.4 µM (inactive) | 22.3 µM (inactive) | 18.2 µM (inactive) | 25.6 µM (inactive) | 16.4 µM (inactive) |  | > 10 µM (inactive) |  | 6.19 µM (inactive) | 12.7 µM (inactive) | 15.1 µM (inactive)
